Experimental data published in patent US6288073A, “Acronycine derivatives, preparation method and pharmaceutical compositions” (Adir et Compagnie, priority 1997, dated 2001).

Key:
[1] = test system: Human Colon Carcinoma HT29; test: Anti-tumour activity on human colon carcinoma HT29 grafted onto nude mice; type: in vivo, nude mice (human HT29 xenograft)
From the text: Line HT29 was supplied by the ATCC (American Type Culture Collection, Rockville, USA). The tumour cells were inoculated into female nude Swiss mice (10^7 cells per animal) by the subcutaneous route. The tumours were then removed and cut into fragments, which were grafted onto nude mice by the subcutaneous route. Once the tumour volume had reached from 50 to 100 mm^3, the mice were distributed into experimental groups containing 8 animals (control group) or 6 animals (treated groups) (day 0). The products were administered by the i.v. route once per week for 3 weeks. The tumours were measured twice per week and the tumour volumes were calculated according to the formula: volume (mm^3)=length (mm)×width^2 […]/2 [formula]
with V0 and Vt being the initial volume and the volume at measurement time t, respectively.

Murine leukaemia L1210 = test: Cytotoxicity for L1210 cells in culture (Microculture Tetrazolium Assay); type: cell-based; conditions: Mus musculus, exposure 48 hours (4 periods of cell doubling), viable cells by Microculture Tetrazolium Assay
Experimental: Murine leukaemia L1210 was used in vitro. The cells are cultured in RPMI 1640 complete culture medium containing 10% foetal calf serum, 2 mM giutamine, 50 units/ml of penicillin, 50 μg/ml of streptomycin and 10 mM Hepes, pH: 7.4. The cells are distributed on microplates and exposed to the cytotoxic compounds for 4 periods of cell doubling, i.e. 48 hours. The number of viable cells is then quantified by means of a colorimetric assay, the Microculture Tetrazolium Assay (J. Carmichael et al., Cancer Res., 47, 936-942, (1987)). The results are expressed as IC50, the concentration of cytotoxic agent which inhibits the proliferation of the treated cells by 50%.

[2] = test system: Line P 388 (murine leukaemia); test: Anti-tumour activity on line P 388 in vivo; parameters: species or system mice; conditions: for % T/C: P 388 inoculated i.p. into female B6D2F1 mice, product i.p. on day 1 at the optimum dose; for Anti-tumour activity on line P 388 (in words): P 388 model in B6D2F1 mice, i.p., d1
Experimental: Line P 388 (murine leukaemia) was supplied by the National Cancer Institute (Frederick, USA). The tumour cells (10^6 cells) were inoculated on day 0 into the peritoneal cavity of female B6D2F1 mice (Iffa Credo, France). Six mice weighing from 18 to 20 g were used for each experimental group. The products were administered by the intraperitoneal route on day 1.
The anti-tumour activity is expressed as % TIC: [formula]

SMILES | Anti-tumour activity on line HT29 (in words) ([1]; HT29 model in nude mice, i.v.) | % T/C on day 32 ([1]; HT29 s.c. grafts in nude Swiss mice, i.v. d 0, 7, 14 at optimum dose, tumour volume) [%] | inhibition of growth of the HT29 tumour ([1]; on day 32, HT29 s.c. grafts in nude mice, i.v. once per week for 3 weeks) [%] | IC50 (Murine leukaemia L1210) [µM] | % T/C [2] [%] | Anti-tumour activity on line P 388 (in words) [2]
COc1cc2c(c3c1c(=O)c1cc4ccccc4cc1n3C)[C@@H](OC(C)=O)[C@@H](OC(C)=O)C(C)(C)O2 (relative stereo) [Example 5, (±)-cis-1,2-Diacetoxy-4-methoxy-3,3,14-trimethyl-2,3,7,14-tetrahydro-1H-benzo[b]pyrano[3,2-h]acridin-7-one] | very active | 17 | 83 | – | – | –
COc1cc2c(c3c1c(=O)c1cc4ccccc4cc1n3C)[C@H]1OC(=O)O[C@H]1C(C)(C)O2 (relative stereo) [Example 7, cis-7-Methoxy-4,4,15-trimethyl-3a,8,15,15c-tetrahydro-4H-benzo[b][1,3]dioxolo[4',5':4,5]pyrano[3,2-h]acridine-2,8-dione] | – | – | – | 0.023 | 327 | very active
COc1cc2c(c3c1c(=O)c1ccccc1n3C)C=CC(C)(C)O2 [Acronycine] | – | – | – | 27 | 125 | only marginally active
